{"source": "patent US20160195544A1", "about": "“METHOD OF DIAGNOSING SEPSIS OR SEPSIS RISK” (UNIVERSITY OF ROCHESTER, priority 2013, published 2016)", "key": {"[1]": {"test_system": "neutrophils isolated from healthy donors", "assay": "In vitro stimulation of neutrophils from healthy donors, VLA-3 expression by RT-PCR and flow cytometry", "assay_type": "cell-based", "settings": "human neutrophils, 1 and 3 hours of stimulation, PMA 20 ng/ml, LPS 100 μg/ml", "from_the_text": "Blood was collected from healthy volunteers via antecubital vein puncture in heparin containing vacutainers. Granulocytes and erythrocytes were separated from whole blood by centrifugation through 1-step Polymorphs (Fresenius Kabi Norge AS) density gradient. Remaining erythrocytes were removed by hypotonic lysis, yielding a neutrophil purity of >98%. The Human Research Studies Review Board of the University of Rochester approved this study, and informed consent was obtained in accordance with the Declaration of Helsinki To measure integrin expression, neutrophils were stimulated with PMA (20 ng/ml), TNF-α (20 ng/ml), LPS (100 μg/ml) or fMLP (1 μM for 1 hour or 3 hours in L15 (Leibovitz) medium with glucose at 37° C. temperatures.\nTotal RNA was prepared from human neutrophils or sorted mouse bone marrow granulocytes using RNeasy Mini Kit (QIAGEN, Valencia, Calif.). Similarly, RNA was reverse transcribed by using murine leukemia virus reverse transcriptase (Life Technologies, Bethesda, Md.), with oligo(dT) as the primer (Invitrogen, San Diego, Calif.). All cDNAs were divided into aliquots and stored at −20° C. until further use. Quantitation of integrins α3 and α2 on human neutrophils and IL-6, IL-β and TNFα mRNA were performed using TaqMan® Gene Expression Assays (Applied Biosystems). […] RQ values were analyzed using software."}, "VLA-3 [2]": {"target": "T1, VLA-3 (Mus musculus, UniProt P09055+Q62470)", "T1 construct": "endogenous in cells; host or cells: neutrophils and other tissues of live mice (C57BL/6; LysM-GFP bone marrow chimeras)", "T1 sequence (Q62470 33-1053)": "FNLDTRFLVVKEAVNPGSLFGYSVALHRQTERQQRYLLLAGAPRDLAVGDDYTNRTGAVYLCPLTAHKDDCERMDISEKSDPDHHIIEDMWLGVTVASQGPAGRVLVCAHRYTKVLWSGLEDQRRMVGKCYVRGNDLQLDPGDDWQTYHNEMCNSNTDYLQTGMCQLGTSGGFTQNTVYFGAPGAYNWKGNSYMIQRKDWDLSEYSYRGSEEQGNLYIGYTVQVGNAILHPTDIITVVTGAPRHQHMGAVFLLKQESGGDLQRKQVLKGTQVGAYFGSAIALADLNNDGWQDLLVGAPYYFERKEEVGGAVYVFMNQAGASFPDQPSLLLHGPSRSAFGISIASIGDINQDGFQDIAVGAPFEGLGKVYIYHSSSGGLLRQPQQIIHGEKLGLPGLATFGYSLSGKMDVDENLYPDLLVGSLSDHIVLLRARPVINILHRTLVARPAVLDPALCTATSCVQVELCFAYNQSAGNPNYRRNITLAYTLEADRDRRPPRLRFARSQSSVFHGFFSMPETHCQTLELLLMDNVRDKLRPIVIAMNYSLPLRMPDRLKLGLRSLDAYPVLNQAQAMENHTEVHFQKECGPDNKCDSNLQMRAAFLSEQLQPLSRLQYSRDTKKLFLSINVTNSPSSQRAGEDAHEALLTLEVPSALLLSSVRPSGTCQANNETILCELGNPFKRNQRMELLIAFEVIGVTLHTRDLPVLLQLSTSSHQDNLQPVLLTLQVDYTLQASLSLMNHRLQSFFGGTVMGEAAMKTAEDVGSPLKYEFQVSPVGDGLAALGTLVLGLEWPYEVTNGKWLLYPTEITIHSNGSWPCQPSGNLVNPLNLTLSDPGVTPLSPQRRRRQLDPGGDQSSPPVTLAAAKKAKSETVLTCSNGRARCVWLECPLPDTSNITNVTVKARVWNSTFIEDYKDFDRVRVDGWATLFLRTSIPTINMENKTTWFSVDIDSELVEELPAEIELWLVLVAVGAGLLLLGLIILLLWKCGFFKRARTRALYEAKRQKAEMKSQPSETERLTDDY", "T1 sequence (P09055 21-798)": "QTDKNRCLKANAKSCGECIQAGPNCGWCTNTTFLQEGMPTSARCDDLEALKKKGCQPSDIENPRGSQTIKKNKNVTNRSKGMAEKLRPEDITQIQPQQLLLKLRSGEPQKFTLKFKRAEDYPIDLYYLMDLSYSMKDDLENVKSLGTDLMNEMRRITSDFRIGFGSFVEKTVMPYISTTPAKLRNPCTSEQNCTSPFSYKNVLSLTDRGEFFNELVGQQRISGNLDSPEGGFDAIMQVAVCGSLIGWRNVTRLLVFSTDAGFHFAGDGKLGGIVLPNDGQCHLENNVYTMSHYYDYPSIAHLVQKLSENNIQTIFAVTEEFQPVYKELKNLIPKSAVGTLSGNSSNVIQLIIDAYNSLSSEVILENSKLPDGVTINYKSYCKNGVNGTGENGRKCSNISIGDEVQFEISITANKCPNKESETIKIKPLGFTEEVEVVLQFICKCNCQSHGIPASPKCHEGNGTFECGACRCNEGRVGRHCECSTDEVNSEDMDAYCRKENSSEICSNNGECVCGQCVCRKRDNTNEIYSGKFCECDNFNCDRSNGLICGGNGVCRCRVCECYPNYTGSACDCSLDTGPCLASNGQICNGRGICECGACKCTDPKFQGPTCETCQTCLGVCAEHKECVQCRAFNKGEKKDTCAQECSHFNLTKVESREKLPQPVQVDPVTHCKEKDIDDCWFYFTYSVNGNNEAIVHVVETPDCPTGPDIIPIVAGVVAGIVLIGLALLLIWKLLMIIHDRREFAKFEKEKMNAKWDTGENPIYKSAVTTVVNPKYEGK", "assay": "Transmission electron microscopy of fMLP-superfused cremaster microvasculature", "assay_type": "in vivo", "settings": "88 μg IV", "procedure": "Leukocyte extravasation was first observed on the fMLP-stimulated cremaster venules of LysM-GFP mice by MP-IVM. LXY2 (88 μg) peptide was injected IV when extravasating cells were noticed. The cremaster was then immediately dissected from the body post-euthanization and fixed with 2.5% glutaraldehyde. The tissue was further processed for transmission electron microscopy at the Electron Microscope Research Core at the University of Rochester for transmission electron microscopy."}, "VLA-3 [3]": {"target": "T1, VLA-3", "assay": "CLP (cecal ligation and puncture) sepsis mouse model, VLA-3 blocking with peptide", "assay_type": "in vivo", "procedure": "(§1) Endotoxemia and CLP were performed according to Animal Resource Protocol approved by the Committee at University of Rochester. For endotoxemia assay, 8-12-wk-old C57BL/6 (Harlan) male mice were weighed and LPS (E. coli […], Sigma-Aldrich) was administered by intra peritoneal (IP) injection to achieve LD90 mortality rate. CLP survival surgery was performed under isofluorane inhalation anesthesia. Caecum was ligated and punctured through and through with a 21-gauge needle. All the mice were resuscitated with 1 ml lactated Ringers injected subcutaneously. For VLA-3 blocking experiments, LXY2 (88 μg) (CysD-AspD-Gly-Tyr(3-NO2)-Gly-4Hyp-Asn-CysD) where the amino acids may be D amino acids, or control (88 μg) (Peptide International) peptides were administered intravenously (IV) at 2 hours and by IP at 8 hours, 32 hours following CLP or endotoxemia. Survival was monitored for 120 hours.\nFor flow cytometry measurement of the integrin expression on neutrophil, bone marrow (BM), peritoneal Lavage (PL), peripheral blood and lungs were isolated from naïve and septic mice at the indicated time points and subsequently single-cell suspensions were prepared. RBC lysis was performed using ACK lysing buffer (Invitrogen, San Diego, Calif.). The Fc receptors were blocked with unconjugated anti-CD16/32 (eBioscience, San Diego, Calif.) for 30 minutes. Samples were stained with Alexafluor 488 labeled anti-Gr1 (Invitrogen). Allophycocyanin (APC) labeled Ly6G (BD Biosciences), PerCp-Cy5.5 labeled anti-CD11b (eBioscience, San Diego, Calif.,), fluorescein isothiocyanate (FITC) anti-F4/80 (eBioscience, San Diego, Calif., USA), purified goat anti-mouse integrin α3/CD49c (R&D Systems), PE-anti-mouse integrin α2/CD49b, α5/CD49e, αv/CD51, APC-anti-mouse integrin α6/CD49f and PE conjugated donkey anti-goat IgG (Santa Cruz) antibodies were used. All samples were fixed with 3.7% formaldehyde and collected on FACS Calliber flow cytometer (BD Biosciences, San Diego, Calif.). Data were analyzed using Flow Jo software.\nPeritoneal lavage was collected after injection of 10 ml PBS into the peritoneum. […] Colony count for each group was expressed as CFU/ml.\nSerum from individual mice was collected at the indicated time points and the level of IL-6 was determined by standard sandwich ELISA protocol. […] The color reaction was developed using TMB (Thermo Scientific, Rockford, Ill.) and measured with an ELISA reader (Kinetic microplate reader; Molecular Devices) at 450 nm.\nAll values are expressed as the mean±SEM. Data from human samples were analyzed by one-way ANOVA. Data from murine experiments were analyzed by paired non-parametric t-test (Wilcoxon test). Survival curves were analyzed by the Kaplan-Meyer log-rank test. […]"}, "VLA-3 [4]": {"target": "T1, VLA-3", "assay": "Multiphoton intravital microscopy (MP-IVM) of fMLP-superfused cremaster vessels of LysM-GFP mice", "assay_type": "in vivo", "settings": "fMLP 1 μM superfusion, 88 μg IV", "from_the_text": "For MP-IVM of Lysozyme M (LysM)-GFP mice (Faust et al., “Insertion of Enhanced Green Fluorescent Protein Into the Lysozyme Gene Creates Mice With Green Fluorescent Granulocytes and Macrophages,” Blood 96:719-726 (2000), the disclosure of which is incorporated herein by reference in its entirety) in which granulocytes and monocytes express GFP were used. In order to accurately track morphological changes and migration velocities of individual extravasating leukocytes, mixed bone marrow chimera mice were generated using 80% WT and 20% LysM-GFP bone marrow into irradiated WT recipient mice to reduce the density of fluorescent cells during imaging. 8 weeks after bone marrow transfer to the irradiated recipient mice, the mice were then used for in vivo imaging. Cremaster muscle was prepared for imaging as previously described (Sumagin et al., “Leukocyte-Endothelial Cell Interactions are Linked to Vascular Permeability Via ICAM-1-Mediated Signaling,” Am. J. Physiol. Heart Circ. Physiol. 295:H969-H977 (2008), the disclosure of which is incorporated herein by reference in its entirety). Briefly, mice were anesthetized with pentobarbital sodium (65 mg/kg IP) and maintained on isoflorane inhalation anesthesia. The body temperature was maintained by placing the animal on a warming pad set. […] Imaging data were analyzed with velocity software (PerkinElmer)."}, "VLA-3 [5]": {"target": "T1, VLA-3", "assay": "LPS-induced endotoxemia mouse model, VLA-3 blocking with peptide", "assay_type": "in vivo", "settings": "endotoxemia mice, 8 hours, 88 μg peptide, vs control peptide", "procedure": "as §1\nFor flow cytometry measurement of the integrin expression on neutrophil, bone marrow (BM), peritoneal Lavage (PL), peripheral blood and lungs were isolated from naïve and septic mice at the indicated time points and subsequently single-cell suspensions were prepared. RBC lysis was performed using ACK lysing buffer (Invitrogen, San Diego, Calif.). The Fc receptors were blocked with unconjugated anti-CD16/32 (eBioscience, San Diego, Calif.) for 30 minutes. […] Data were analyzed using Flow Jo software."}}}
{"molecule": "CCCCCCCCCCCCCC(=O)O[C@@H]1[C@@H](C)[C@@]2(O)[C@@H](C=C(CO)C[C@]3(O)C(=O)C(C)=C[C@@H]23)[C@@H]2C(C)(C)[C@]12OC(C)=O", "note": "[PMA]", "values": [{"measurement": "mRNA level of VLA-3", "setting": "[1]; RT-PCR", "result": "significant increases"}, {"measurement": "protein (cell-surface) level of VLA-3", "setting": "[1]; flow cytometry", "result": "significant increases"}]}
{"molecule": "CysD-AspD-Gly-Tyr(3-NO2)-Gly-4Hyp-Asn-CysD [LXY2]", "values": [{"measurement": "location of neutrophils in the vessel wall (ultrastructural analysis)", "setting": "VLA-3 [2]", "result": "majority of neutrophils accumulated within the space between the endothelium and the basement membrane"}, {"measurement": "survival / sepsis lethality", "setting": "VLA-3 [3]; CLP and endotoxemia mice, 88 μg IV at 2 hours and IP at 8 and 32 hours, survival monitored 120 hours, Kaplan-Meyer log-rank", "result": "protected mice from sepsis lethality"}, {"measurement": "number of tissue-infiltrating neutrophils (PL and lungs)", "setting": "VLA-3 [3]; mice with CLP-induced sepsis, 8 hours after CLP, 88 μg/dose IV, vs control peptide", "result": "significantly reduced"}, {"measurement": "local bacterial clearance (bacterial load in PL)", "setting": "VLA-3 [3]; septic mice, PL streaked on TSA blood agar, colonies counted after 24 hours", "result": "without altering"}, {"measurement": "levels of the IL-6 cytokine in the serum", "setting": "VLA-3 [3]; septic mice, sandwich ELISA", "result": "reduced"}, {"measurement": "neutrophil extravasation in response to fMLP", "setting": "VLA-3 [4]", "result": "dramatically reduced"}, {"measurement": "number of tissue-infiltrating neutrophils (PL)", "setting": "VLA-3 [5]", "result": "significantly reduced"}]}
